Assay results: patent US20100137376A1 (priority 2007, published 2010)

How the values were obtained:
Septoria tritici = test: Test of Preventive Effect on Wheat Leaf Blotch; format: in vivo; settings: wheat (Apogee), foliage application 500 ppm, inoculation after 3 or 4 days, 18° C. high humidity 3 days then lighting 14 to 18 days
Procedure: (§1) In the following Test Examples, foliage application was accomplished by spraying each test solution over a different plant.
(§2) The controlling effect was evaluated by visually observing the area or lesion spots on each of test plants at the time of investigation and comparing the area of lesion spots on a plant treated with the present compound with that on an untreated plant.
Each of plastic pots was filled with sandy loam and sown with wheat (cultivar: Apogee), followed by growing in a greenhouse for 10 days. Each of the present compounds 49 to 52 was formulated into a flowable formulation according to Formulation Example 6. The flowable formulation was diluted to a predetermined concentration (500 ppm) with water, and foliage application of the dilution was carried out so that the dilution could adhere sufficiently to the surfaces of leaves of the grown wheat seedling. After the application, the plant was air-dried. After 3 or 4 days, the plant was inoculated by spraying a water suspension of spores of Septoria tritici. After the inoculation, the plant was held under high humidity conditions at 18° C. for 3 days and then under lighting condition for 14 to 18 days. Then, the area of lesion spots was investigated.

Stagonospora nodorum = test: Test of Preventive Effect on Wheat Glume Blotch; format: in vivo; settings: wheat (Shirogane), foliage application 500 ppm before inoculation, 18° C. 4 days dark high humidity then 4 days lighting
Procedure: as §1, §2
Each of plastic pots was filled with sandy loam and sown with wheat (cultivar; Shirogane), followed by growing in a greenhouse for 10 days.
Each of the present compounds 1 and 3 to 37 was formulated into a flowable formulation according to Formulation Example 6. The flowable formulation was diluted to a predetermined concentration (500 ppm) with water, and foliage application of the dilution was carried out so that the dilution could adhere sufficiently to the surfaces of leaves of the grown wheat seedling.
The wheat which was applied by the dilution was air-dried and then inoculated by spraying a water suspension of spores of Stagonospora nodorum.
After the inoculation, the plant was held under darkness and high humidity conditions at 18° C. for 4 days and then under lighting conditions for 4 days, and then the area of lesion spots was investigated.

Structure (SMILES)	area of lesion spots on the treated plant relative to that on an untreated plant (Septoria tritici)	area of lesion spots on the treated plant relative to that on an untreated plant (Stagonospora nodorum)
CC1CCCCC1NC(=O)c1cc(N)nc(F)c1 (centres unmarked) [compound 50]	≤ 30%	–
O=C(NCC1CCCCC1)c1ccnc(F)c1 [compound 4]	–	≤ 30%
